In PubChem BioAssay AID1259407 (Chemical Carcinogenesis Research Information System (CCRIS), 2018):
Calls of active or inactive are those of the source. The rule behind the calls is not given here.

System: CCRIS mutagenicity, Ames/micronucleus/aberration tests
Experiment: CCRIS mutagenicity studies
[1] = Test System: AMES SALMONELLA TYPHIMURIUM, Strain/Indicator: TA100, Metabolic Activation: RAT, LIVER, S-9, AROCLOR 1254, Method: STANDARD PLATE
[2] = Test System: AMES SALMONELLA TYPHIMURIUM, Strain/Indicator: TA98, Metabolic Activation: NONE, Method: STANDARD PLATE
[3] = Test System: AMES SALMONELLA TYPHIMURIUM, Strain/Indicator: TA100, Metabolic Activation: NONE, Method: STANDARD PLATE
[4] = Test System: AMES SALMONELLA TYPHIMURIUM, Strain/Indicator: TA98, Metabolic Activation: NONE, Method: PREINCUBATION
[5] = Test System: AMES SALMONELLA TYPHIMURIUM, Strain/Indicator: TA100, Metabolic Activation: NONE, Method: PREINCUBATION
[6] = Test System: AMES SALMONELLA TYPHIMURIUM, Strain/Indicator: TA98, Metabolic Activation: RAT, LIVER, S-9, AROCLOR 1254, Method: STANDARD PLATE
[7] = Test System: AMES SALMONELLA TYPHIMURIUM, Strain/Indicator: TA1535, Metabolic Activation: NONE, Method: STANDARD PLATE
[8] = Test System: AMES SALMONELLA TYPHIMURIUM, Strain/Indicator: TA1535, Metabolic Activation: RAT, LIVER, S-9, AROCLOR 1254, Method: STANDARD PLATE
[9] = Test System: AMES SALMONELLA TYPHIMURIUM, Strain/Indicator: TA1537, Metabolic Activation: NONE, Method: STANDARD PLATE
[10] = Test System: AMES SALMONELLA TYPHIMURIUM, Strain/Indicator: TA1537, Metabolic Activation: RAT, LIVER, S-9, AROCLOR 1254, Method: STANDARD PLATE
[11] = Test System: AMES SALMONELLA TYPHIMURIUM, Strain/Indicator: TA1535, Metabolic Activation: NONE, Method: PREINCUBATION

**Q.** How did the mutagenic call (Test System: AMES SALMONELLA TYPHIMURIUM, Strain/Indicator: TA98, Method: STANDARD PLATE) turn out when `Cc1c2ccccc2cc2c1ccc1ccccc12` was run?
**A.** active; positive

**Q.** And the mutagenic call (Test System: AMES SALMONELLA TYPHIMURIUM, Strain/Indicator: TA100, Metabolic Activation: RAT, INTACT HEPATOCYTES, AROCLOR 1254, Method: PREINCUBATION)?
**A.** active; positive

**Q.** And the mutagenic call [1]?
**A.** active; positive

**Q.** And the mutagenic call (Test System: AMES SALMONELLA TYPHIMURIUM, Strain/Indicator: TA100, Metabolic Activation: RAT, LIVER, S-9, PHENOBARBITAL, Method: STANDARD PLATE)?
**A.** active; positive

**Q.** What about the mutagenic call (Test System: AMES SALMONELLA TYPHIMURIUM, Strain/Indicator: TA100, Metabolic Activation: RAT, NADPH-FORTIFIED HOMOGENIZED HEPATOCYTES, AROCLOR 1254, Method: PREINCUBATION) of the same molecule?
**A.** active; positive

**Q.** What about the mutagenic call (Test System: AMES SALMONELLA TYPHIMURIUM, Strain/Indicator: TA100, Metabolic Activation: RAT, SONICATED HEPATOCYTES, AROCLOR 1254, Method: PREINCUBATION) of the same molecule?
**A.** active; positive

**Q.** What about the mutagenic call (Test System: AMES SALMONELLA TYPHIMURIUM, Strain/Indicator: TA100, Method: STANDARD PLATE) of the same molecule?
**A.** active; positive

**Q.** What about the mutagenic call (Test System: CHINESE HAMSTER V-79, Strain/Indicator: V-79/8-AZAGUANINE, Metabolic Activation: CELL-MEDIATED, Method: STANDARD PLATE) of the same molecule?
**A.** active; positive

**Q.** And the mutagenic call (Test System: CHINESE HAMSTER V-79, Strain/Indicator: V-79/8-AZAGUANINE, Metabolic Activation: NONE, Method: STANDARD PLATE)?
**A.** active; positive

**Q.** And the mutagenic call (Test System: CHINESE HAMSTER V-79, Strain/Indicator: V-79/OUABAIN, Metabolic Activation: CELL-MEDIATED, Method: STANDARD PLATE)?
**A.** active; positive

**Q.** `CC(C)Nc1nc(N)nc(Cl)n1` was tested. Which mutagenic call (Test System: AMES SALMONELLA TYPHIMURIUM, Strain/Indicator: TA97, Metabolic Activation: NONE, Method: STANDARD PLATE) did it give?
**A.** inactive; negative

**Q.** And the mutagenic call [2]?
**A.** inactive; negative

**Q.** And the mutagenic call [3]?
**A.** inactive; negative

**Q.** With `Fc1cccc2ccc3ncccc3c12` as the molecule, how does the mutagenic call (Test System: AMES SALMONELLA TYPHIMURIUM, Strain/Indicator: TA100, Metabolic Activation: RAT, LIVER, S-9, PHENOBARBITAL AND 5,6-BENZOFLAVONE, Method: PREINCUBATION) read?
**A.** active; positive

**Q.** With `CCCCCC(=O)OCC` as the molecule, how does the mutagenic call (Test System: AMES SALMONELLA TYPHIMURIUM, Strain/Indicator: TA97, Metabolic Activation: NONE, Method: PREINCUBATION) read?
**A.** inactive; negative

**Q.** And the mutagenic call (Test System: AMES SALMONELLA TYPHIMURIUM, Strain/Indicator: TA97, Metabolic Activation: RAT, LIVER, S-9, AROCLOR 1254, Method: PREINCUBATION)?
**A.** inactive; negative

**Q.** What about the mutagenic call (Test System: AMES SALMONELLA TYPHIMURIUM, Strain/Indicator: TA102, Metabolic Activation: NONE, Method: PREINCUBATION) of the same molecule?
**A.** inactive; negative

**Q.** What about the mutagenic call (Test System: AMES SALMONELLA TYPHIMURIUM, Strain/Indicator: TA102, Metabolic Activation: RAT, LIVER, S-9, AROCLOR 1254, Method: PREINCUBATION) of the same molecule?
**A.** inactive; negative

**Q.** For `Cc1ccccc1C(=O)Cl`, which mutagenic call [4] is on record?
**A.** inactive; negative

**Q.** And the mutagenic call (Test System: AMES SALMONELLA TYPHIMURIUM, Strain/Indicator: TA98, Metabolic Activation: RAT LIVER S-9, PCB, Method: PREINCUBATION)?
**A.** active; positive

**Q.** What about the mutagenic call [5] of the same molecule?
**A.** inactive; negative

**Q.** What about the mutagenic call (Test System: AMES SALMONELLA TYPHIMURIUM, Strain/Indicator: TA100, Metabolic Activation: RAT LIVER S-9, PCB, Method: PREINCUBATION) of the same molecule?
**A.** active; positive

**Q.** And the mutagenic call (Test System: AMES SALMONELLA TYPHIMURIUM, Strain/Indicator: TA104, Metabolic Activation: NONE, Method: PREINCUBATION)?
**A.** inactive; negative

**Q.** And the mutagenic call (Test System: AMES SALMONELLA TYPHIMURIUM, Strain/Indicator: TA104, Metabolic Activation: RAT LIVER S-9, PCB, Method: PREINCUBATION)?
**A.** active; positive

**Q.** What about the mutagenic call (Test System: E.COLI, Strain/Indicator: WP2 UVRA, Metabolic Activation: NONE, Method: PREINCUBATION) of the same molecule?
**A.** active; positive

**Q.** What about the mutagenic call (Test System: E.COLI, Strain/Indicator: WP2 UVRA, Metabolic Activation: RAT LIVER S-9, PCB, Method: PREINCUBATION) of the same molecule?
**A.** active; positive

**Q.** How did the mutagenic call [2] turn out when `CCOc1ccccc1OCC1CNCCO1` (centres undefined) was run?
**A.** inactive; negative

**Q.** And the mutagenic call [6]?
**A.** inactive; negative

**Q.** And the mutagenic call [3]?
**A.** inactive; negative

**Q.** What about the mutagenic call [1] of the same molecule?
**A.** inactive; negative

**Q.** And the mutagenic call [7]?
**A.** inactive; negative

**Q.** What about the mutagenic call [8] of the same molecule?
**A.** inactive; negative

**Q.** What about the mutagenic call [9] of the same molecule?
**A.** inactive; negative

**Q.** What about the mutagenic call [10] of the same molecule?
**A.** inactive; negative

**Q.** With `O=Cc1ccc2ccc3cccc4ccc1c2c34` as the molecule, how does the mutagenic call [6] read?
**A.** active; positive

**Q.** What about the mutagenic call [1] of the same molecule?
**A.** active; positive

**Q.** `O=C(O)Cc1c[nH]c2ccc(O)cc12` was tested. Which mutagenic call [5] did it give?
**A.** inactive; negative

**Q.** What does the source list for `COc1ccc(CC2CO2)cc1OC` (centres undefined)?
**A.** mutagenic call [5]: active; positive; mutagenic call [3]: active; positive; mutagenic call [11]: active; positive; mutagenic call [7]: active; positive

**Q.** For `CCCCOc1cc(OC)ccc1C(=O)NOC(C)=O`, which mutagenic call [3] is on record?
**A.** active; positive

**Q.** And the mutagenic call (Test System: AMES SALMONELLA TYPHIMURIUM, Strain/Indicator: TA100, Metabolic Activation: RAT, S-9, AROCLOR, Method: STANDARD PLATE)?
**A.** active; positive

**Q.** With `C[C@@]12CCC=C(C=O)[C@]1(C=O)C2` as the molecule, how does the mutagenic call [2] read?
**A.** active; positive

**Q.** What about the mutagenic call [3] of the same molecule?
**A.** active; positive

**Q.** `Oc1cccc2c1ccc1c3ccccc3ccc21` was tested. Which mutagenic call [6] did it give?
**A.** inactive; negative

**Q.** What about the mutagenic call [3] of the same molecule?
**A.** inactive; negative

**Q.** With `CN(C)CCOC(C)(c1ccccc1)c1ccccn1` (centres undefined) as the molecule, how does the mutagenic call (Test System: AMES SALMONELLA TYPHIMURIUM, Strain/Indicator: TA98, Metabolic Activation: HAMSTER, LIVER, S-9, AROCLOR 1254 (10%), Method: PREINCUBATION) read?
**A.** inactive; negative

**Q.** And the mutagenic call [4]?
**A.** inactive; negative

**Q.** And the mutagenic call (Test System: AMES SALMONELLA TYPHIMURIUM, Strain/Indicator: TA98, Metabolic Activation: RAT, LIVER, S-9, AROCLOR 1254 (10%), Method: PREINCUBATION)?
**A.** inactive; negative

**Q.** And the mutagenic call (Test System: AMES SALMONELLA TYPHIMURIUM, Strain/Indicator: TA100, Metabolic Activation: HAMSTER, LIVER, S-9, AROCLOR 1254 (10%), Method: PREINCUBATION)?
**A.** inactive; negative

**Q.** And the mutagenic call [5]?
**A.** inactive; negative

**Q.** And the mutagenic call (Test System: AMES SALMONELLA TYPHIMURIUM, Strain/Indicator: TA100, Metabolic Activation: RAT, LIVER, S-9, AROCLOR 1254 (10%), Method: PREINCUBATION)?
**A.** inactive; negative

**Q.** And the mutagenic call (Test System: AMES SALMONELLA TYPHIMURIUM, Strain/Indicator: TA1535, Metabolic Activation: HAMSTER, LIVER, S-9, AROCLOR 1254 (10%), Method: PREINCUBATION)?
**A.** inactive; negative

**Q.** What about the mutagenic call [11] of the same molecule?
**A.** inactive; negative

**Q.** What about the mutagenic call (Test System: AMES SALMONELLA TYPHIMURIUM, Strain/Indicator: TA1535, Metabolic Activation: RAT, LIVER, S-9, AROCLOR 1254 (10%), Method: PREINCUBATION) of the same molecule?
**A.** inactive; negative

**Q.** And the mutagenic call (Test System: AMES SALMONELLA TYPHIMURIUM, Strain/Indicator: TA1537, Metabolic Activation: HAMSTER, LIVER, S-9, AROCLOR 1254 (10%), Method: PREINCUBATION)?
**A.** inactive; negative

**Q.** And the mutagenic call (Test System: AMES SALMONELLA TYPHIMURIUM, Strain/Indicator: TA1537, Metabolic Activation: NONE, Method: PREINCUBATION)?
**A.** inactive; negative

**Q.** And the mutagenic call (Test System: AMES SALMONELLA TYPHIMURIUM, Strain/Indicator: TA1537, Metabolic Activation: RAT, LIVER, S-9, AROCLOR 1254 (10%), Method: PREINCUBATION)?
**A.** inactive; negative

**Q.** Which mutagenic call [2] does the source give for `Cc1cc(N)c([N+](=O)[O-])c(C)c1N` here?
**A.** inactive; negative

**Q.** And the mutagenic call [6]?
**A.** inactive; negative

**Q.** What about the mutagenic call [3] of the same molecule?
**A.** inactive; negative

**Q.** And the mutagenic call [1]?
**A.** inactive; negative

**Q.** What about the mutagenic call [7] of the same molecule?
**A.** inactive; negative

**Q.** What about the mutagenic call [8] of the same molecule?
**A.** inactive; negative

**Q.** What about the mutagenic call [9] of the same molecule?
**A.** inactive; negative

**Q.** And the mutagenic call [10]?
**A.** inactive; negative

**Q.** What about the mutagenic call (Test System: AMES SALMONELLA TYPHIMURIUM, Strain/Indicator: TA1538, Metabolic Activation: NONE, Method: STANDARD PLATE) of the same molecule?
**A.** inactive; negative

**Q.** And the mutagenic call (Test System: AMES SALMONELLA TYPHIMURIUM, Strain/Indicator: TA1538, Metabolic Activation: RAT, LIVER, S-9, AROCLOR 1254, Method: STANDARD PLATE)?
**A.** inactive; negative
